Test results reported in the supplement of paper PMC4862054.

Key:
Details in all cases: incubation time: 72 h
[1] = test system: CAL-120; assay: normalised response (% of control), CellTox Green; higher = less cell death (100 = DMSO, 0 = benzethonium chloride kill control)
Outline: (§1)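 Breast cancer cell lines were exposed for 72 h in 384-well plates to compound at 5 concentrations, 10-fold apart, covering a 10,000-fold range fixed for each compound. Plates were read for CellTox Green fluorescence and CellTiter-Glo luminescence and normalised to 0.1 % DMSO (100) and a positive kill control (0). Each value is the normalised signal at one concentration of the series.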

[2] = test system: CAL-51; assay: as above
Outline: as §1

[3] = test system: CAL-85-1; assay: as above
Outline: as §1

[4] = test system: Hs578T; assay: as above
Outline: as §1

[5] = test system: MCF-10A; assay: as above
Outline: as §1

[6] = test system: MDA-MB-231; assay: as above
Outline: as §1

[7] = test system: MDA-MB-436; assay: as above
Outline: as §1

[8] = test system: MDA-MB-453; assay: as above
Outline: as §1

[9] = test system: MDA-MB-468; assay: as above
Outline: as §1

[10] = test system: BT-474; assay: drug sensitivity score (DSS), CellTox Green (DSS (AUC-based score)); higher = stronger drug effect (viability inhibition or cytotoxicity); extreme values may be limits of the assay
Outline: (§2)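 For 72 h, breast cancer cell lines seeded at 20 µl suspension per well in 384-well plates were incubated with compound at 5 concentrations in 10-fold steps spanning a 10,000-fold range that differed by compound. The first reading was CellTox Green fluorescence at 485/520 nm, and the second was CellTiter-Glo luminescence after 10 min at room temperature. Both were normalised per plate to 0.1 % DMSO and a positive kill control, and the drug sensitivity score was obtained from the area under the fitted dose-response curve.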

[11] = test system: BT-549; assay: as above
Outline: as §2

[12] = test system: CAL-120; assay: as above
Outline: as §2

[13] = test system: CAL-148; assay: as above
Outline: as §2

[14] = test system: CAL-51; assay: as above
Outline: as §2

[15] = test system: CAL-85-1; assay: as above
Outline: as §2

[16] = test system: DU-4475; assay: as above
Outline: as §2

[17] = test system: HCC1143; assay: as above
Outline: as §2

[18] = test system: HCC1599; assay: as above
Outline: as §2

[19] = test system: HCC1937; assay: as above
Outline: as §2

[20] = test system: HDQ-P1; assay: as above
Outline: as §2

[21] = test system: MCF-10A; assay: as above
Outline: as §2

[22] = test system: MDA-MB-231; assay: as above
Outline: as §2

[23] = test system: MDA-MB-453; assay: as above
Outline: as §2

[24] = test system: MDA-MB-468; assay: as above
Outline: as §2

[25] = test system: MFM-223; assay: as above
Outline: as §2

[26] = test system: Hs578T; assay: as above
Outline: as §2

[27] = test system: MDA-MB-436; assay: as above
Outline: as §2

SMILES: Cc1c(N)nc([C@H](CC(N)=O)NC[C@H](N)C(N)=O)nc1C(=O)N[C@H](C(=O)N[C@H](C)[C@@H](O)[C@H](C)C(=O)N[C@H](C(=O)NCCc1nc(-c2nc(C(=O)NCCC[S+](C)C)cs2)cs1)[C@@H](C)O)[C@@H](OC1OC(CO)C(O)C(O)C1OC1OC(CO)C(O)C(OC(N)=O)C1O)c1cnc[nH]1 (stereo not given in full) [Bleomycin] (1000 nM)
- normalised response [1]: 92.9%
- normalised response [2]: 44.5%
- normalised response [3]: 92.7%
- normalised response [4]: 67.4%
- normalised response [5]: 92.5%
- normalised response [6]: 67.9%
- normalised response [7]: 84.5%
- normalised response [8]: 99.1%
- normalised response [9]: 138%

SMILES: CN1CCN(c2nc(C3=C(c4c[nH]c5ccccc45)C(=O)NC3=O)c3ccccc3n2)CC1 [Sotrastaurin] (1000 nM)
- normalised response [1]: 102%
- normalised response [2]: 105%
- normalised response [3]: 106%
- normalised response [4]: 105%
- normalised response [5]: 108%
- normalised response [6]: 108%
- normalised response [7]: 102%
- normalised response [8]: 105%
- normalised response [9]: 215%

SMILES: CC[C@@H]1C(=O)N(C)c2cnc(Nc3ccc(C(=O)N[C@H]4CC[C@H](N5CCN(CC6CC6)CC5)CC4)cc3OC)nc2N1C(C)C [Volasertib] (100 nM)
- normalised response [1]: 89%
- normalised response [2]: 46.4%
- normalised response [3]: 57%
- normalised response [4]: 61%
- normalised response [5]: 24.1%
- normalised response [6]: -0.74%
- normalised response [7]: 64.2%
- normalised response [8]: 98%
- normalised response [9]: 85.1%

SMILES: CO[C@H]1C[C@@H]2CC[C@@H](C)[C@@](O)(O2)C(=O)C(=O)N2CCCC[C@H]2C(=O)O[C@H]([C@H](C)C[C@@H]2CC[C@@H](O)[C@H](OC)C2)CC(=O)[C@H](C)/C=C(\C)[C@@H](O)[C@@H](OC)C(=O)[C@H](C)C[C@H](C)/C=C/C=C/C=C/1C [Sirolimus] (100 nM)
- normalised response [1]: 106%
- normalised response [2]: 99.1%
- normalised response [3]: 110%
- normalised response [4]: 106%
- normalised response [5]: 107%
- normalised response [6]: 116%
- normalised response [7]: 94.5%
- normalised response [8]: 106%
- normalised response [9]: 141%

SMILES: NC(=O)NO [Hydroxyurea]
- drug sensitivity score [10]: 0
- drug sensitivity score [11]: 0
- drug sensitivity score [12]: 0
- drug sensitivity score [13]: 0
- drug sensitivity score [14]: 8.77
- drug sensitivity score [15]: 0
- drug sensitivity score [16]: 0
- drug sensitivity score [17]: 0
- drug sensitivity score [18]: 0
- drug sensitivity score [19]: 0
- drug sensitivity score [20]: 0
- drug sensitivity score [21]: 0
- drug sensitivity score [22]: 0
- drug sensitivity score [23]: 0
- drug sensitivity score [24]: 0
- drug sensitivity score [25]: 0

SMILES: CC/C(=C(\c1ccccc1)c1ccc(OCCN(C)C)cc1)c1ccccc1 [Tamoxifen] (1000 nM)
- normalised response [1]: 102%
- normalised response [2]: 99.5%
- normalised response [3]: 101%
- normalised response [4]: 89.4%
- normalised response [5]: 111%
- normalised response [6]: 103%
- normalised response [7]: 108%
- normalised response [8]: 110%
- normalised response [9]: 148%

SMILES: CCN(CC)CCOc1ccc(C(=C(Cl)c2ccccc2)c2ccccc2)cc1 [Clomifene] (1000 nM)
- normalised response [1]: 99.7%
- normalised response [2]: 110%
- normalised response [3]: 99.8%
- normalised response [4]: 102%
- normalised response [5]: 80.3%
- normalised response [6]: 96%
- normalised response [7]: 83.7%
- normalised response [8]: 104%
- normalised response [9]: 68.9%

SMILES: CO[C@H](C(=O)[C@@H](O)[C@@H](C)O)[C@@H]1Cc2cc3cc(O[C@H]4C[C@@H](O[C@@H]5C[C@@H](O)[C@H](O)[C@@H](C)O5)[C@H](O)[C@@H](C)O4)c(C)c(O)c3c(O)c2C(=O)[C@H]1O[C@H]1C[C@@H](O[C@@H]2C[C@@H](O)[C@@H](O[C@@H]3C[C@](C)(O)[C@H](O)[C@@H](C)O3)[C@@H](C)O2)[C@H](O)[C@@H](C)O1 [Plicamycin] (10000 nM)
- normalised response [1]: 71.9%
- normalised response [2]: -45.3%
- normalised response [3]: 39.3%
- normalised response [4]: 40.9%
- normalised response [5]: 9.61%
- normalised response [6]: 55.1%
- normalised response [7]: 109%
- normalised response [8]: 45.7%
- normalised response [9]: 54%

SMILES: CN1CCN(c2nc(C3=C(c4c[nH]c5ccccc45)C(=O)NC3=O)c3ccccc3n2)CC1 [Sotrastaurin]
- drug sensitivity score [10]: 0
- drug sensitivity score [11]: 0
- drug sensitivity score [12]: 0
- drug sensitivity score [14]: 0
- drug sensitivity score [15]: 0
- drug sensitivity score [16]: 0
- drug sensitivity score [17]: 0
- drug sensitivity score [18]: 0
- drug sensitivity score [19]: 0
- drug sensitivity score [20]: 0
- drug sensitivity score [26]: 0
- drug sensitivity score [21]: 0
- drug sensitivity score [22]: 0
- drug sensitivity score [27]: 0
- drug sensitivity score [23]: 0
- drug sensitivity score [24]: 0
- drug sensitivity score [25]: 0

SMILES: COc1cc2c(Oc3ccc(NC(=O)C4(C(=O)Nc5ccc(F)cc5)CC4)cc3F)ccnc2cc1OCCCN1CCOCC1 [Foretinib] (1000 nM)
- normalised response [1]: 99.9%
- normalised response [2]: 37.9%
- normalised response [3]: 76.8%
- normalised response [4]: 75.7%
- normalised response [5]: 101%
- normalised response [6]: -15.4%
- normalised response [7]: 81.9%
- normalised response [8]: 93.5%
- normalised response [9]: 37.6%
